Test results as given in US20060147479A1, “Angiogenic medical cyanoacrylate adhesive” (priority 2002, published 2006).

Key:
[1] = test system: angiogenesis; conditions: cited from earlier work
[2] = Bond strength of tributyrin/cyanoacrylate blend on costal cartilage (Nene MC3000); format: physicochemical; conditions: 5% to 50% (w/w) tributyrin in cyanoacrylate; held 1 minute, cured an additional hour in aqueous conditions
Method: 0.5 g of the sterile tributyrin was added to cyanoacrylate (9.5 g) to produce a 5% (w/w) blend in a sterile plastic universal tube. This was mixed for 2 minutes to ensure a homogenous blend. 40 μl aliquots of the blended adhesive were applied to freshly cut surfaces of costal cartilage. The two surfaces were held together for 1 minute allowing fixation and curing was allowed to continue for an additional hour in aqueous conditions. The bond strength was tested using a Nene MC3000 machine, where the applied force required to separate the bonded pieces of cartilage was recorded.

[3] = Release of tributyrin from cured blended adhesive disks into water, gas chromatography; format: physicochemical; conditions: 5% w/w tributyrin cyanoacrylate sample; 2 ml water, 50° C., 1, 5 or 7 days with continuous agitation
Method: 0.5g of the sterile tributyrin was added to cyanoacrylate (9.5 g) to produce a 5% (w/w) blend in a sterile plastic universal tube. This was mixed for 2 minutes to ensure a homogenous blend. Small disks of the blended adhesive were cast onto a basic solution (dilute triethylamine 0.1% aq). The disks were removed, washed briefly and dried. The disks were then placed into 2 ml water and stored at 50° C. for 1, 5 or 7 days with continuous agitation. The water was removed then added to 2 mls dichloromethane in order to extract any released tributyrin. The dichloromethane layer was analysed using gas chromatography and the amount of tributyrin recorded. The disks were dried and then placed into fresh water at 50° C. for an additional day. The amount of tributyrin released into the fresh water was measured as described for the first samples.

[4] = Premature curing of cyanoacrylate by angiogenic agent; format: physicochemical; conditions: in combination with cyanoacrylate

Compound | local release sufficient to achieve the desired angiogenic effect [1] [ng] | adhesive property (bond strength; applied force required to separate the bonded pieces of cartilage) [2] | tributyrin released from cured adhesive disks [3] | premature cure of cyanoacrylate [4]
CCCC(=O)O [butyric acid, butanoic acid] | 10 to 1000 | – | – | –
CCCC(=O)OCC(COC(=O)CCC)OC(=O)CCC [tributyrin, glcerol tributyrate; 1,2,3-(propyl)tributanoate] | – | without an unacceptable loss of adhesive property | released from a 5% w/w tributyrin cyanoacrylate sample over a 7 day period | do not cause cyanoacrylate to prematurely cure
